From publication PMC5400620, “Preclinical therapeutic efficacy of a novel blood-brain barrier-penetrant dual PI3K/mTOR inhibitor with preferential response in PI3K/PTEN mutant glioma” (Oncotarget, 2017)

What was measured:
[1] = system: glioma cell lines U87 and U251; assay: cell viability with DS, TMZ and the combination; format: cell-based; details: Homo sapiens, U-251, TMZ 200 μM, DS 200 nM, alone or combined
Procedure: To investigate the ability of DS to modify the response of glioma cells to TMZ treatment, we evaluated the effects of TMZ (200 μM) alone, DS (200 nM) alone, and a combination of both TMZ and DS on the viability of the glioma cell lines U87 and U251 (Figure 5A).
The antiproliferative effect of DS on cells growing in culture was determined using the CellTiter-Blue (Promega, Madison, WI) viability assay. The mean drug concentration required to inhibit cell proliferation by 50% (IC50) compared with vehicle-treated controls was calculated using CalcuSyn Version 2.0 software (Great ShelfordCambridge, United Kingdom).

[2] = system: U87 GFP-LC3 cells; assay: GFP-LC3 puncta detection (autophagy); format: cell-based, human; details: TMZ 125 μM, DS 100 nM, control 2%
Text: To investigate the effects of DS, TMZ, or the TMZ/DS combination on autophagy in glioma cells, we transfected cells with GFP-LC3 constructs in addition to various drug treatment and control treatment regimens and examined the accumulation of punctate GFP-LC3 structures using fluorescence microscopy. During autophagy, LC3-II relocalizes to the autophagosomal membranes. Thus, the accumulation of GFP-LC3 puncta provides an effective way to detect autophagosomes. In control cells, GFP-LC3 punctate structures were not detected, but large numbers of GFP-LC3 punctate structures were found in cells treated with DS or TMZ (Figure 5C). […] Strikingly, the combination of DS and TMZ further induced autophagy in up to 50% of U87 cells.
U87 GFP-LC3 cells were analyzed by using a fluorescence microscope, and the percentage of cells displaying GFP-LC3-positive puncta was quantified by counting 5 random fields in 3 independent experiments.

[3] = system: U87 xenografts; assay: U87 intracranial xenograft, DS, TMZ or DS + TMZ; details: U87 xenograft-bearing nude mice, TMZ 7.5 mg/kg
Procedure: Data are presented as the mean ± SD of three experiments. […] D, Kaplan–Meier survival curves comparing the treatments using log-rank tests. DS and TMZ were compared with the control group, and DS + TMZ was compared with the control group, TMZ alone, and DS alone. E, Representative H&E-stained whole brain sections at 4 weeks after treatment. […] The tissue sections were incubated with antibodies against Ki-67.
To evaluate the long-term antitumor effect of the TMZ/DS combination, we further assessed the effects of TMZ, DS, or the combination treatment on the survival rate of U87 xenograft-bearing nude mice, which indirectly reflected the survival of tumor-bearing mice relative to their tumor burden.

SMILES: Cn1nnc2c(C(N)=O)ncn2c1=O [TMZ, temozolomide, reference compound]
- viability at 200 µM [1]: 93%
- cells with induced autophagy (GFP-LC3 puncta) [2]: 10%
- tumor burden compared with control groups [3]: did not reduce the tumor burden
